Experimental data as given in ChEMBL document CHEMBL4002577, “Phenylthiazole antibiotics: A metabolism-guided approach to overcome short duration of action” (Eur J Med Chem, 2017).
In brackets after ≈: the same amount, converted by molar mass. Activity calls are given as the source filed them. No cut-off for these calls is given here.

Legend:
Staphylococcus aureus [1] = experiment: Antibacterial activity against vancomycin-resistant Staphylococcus aureus VRSA4 clinical isolate after 18 to 20 hrs by broth microdilution method; assay type: functional
Staphylococcus aureus [2] = experiment: Antibacterial activity against methicillin/erythromycin/tetracycline-resistant Staphylococcus aureus USA300 NRS384 clinical isolate after 18 to 20 hrs by broth microdilution method; assay type: functional
Staphylococcus aureus [3] = experiment: Bactericidal activity against methicillin-resistant Staphylococcus aureus USA400 NRS123 clinical isolate after 24 hrs; assay type: functional; details: for MBC: USA400 NRS123, 24 h
HaCaT [4] = experiment: Cytotoxicity against human HaCaT cells assessed as decrease in cell viability up to 16 ug/ml after 2 hrs by MTS assay; assay type: cell-based
Staphylococcus aureus [5] = experiment: Antibacterial activity against mupirocin/rifampicin-resistant Staphylococcus aureus RN4220 NRS107 clinical isolate after 18 to 20 hrs by broth microdilution method; assay type: functional
Staphylococcus aureus [6] = experiment: Bactericidal activity against methicillin/ciprofloxacin/gentamicin/clindamycin-resistant Staphylococcus aureus USA200 NRS383 clinical isolate after 24 hrs; assay type: functional; details: for MBC: USA200 NRS383, 24 h
Staphylococcus aureus [7] = experiment: Bactericidal activity against methicillin/ciprofloxacin/clindamycin-resistant Staphylococcus aureus USA100 NRS382 clinical isolate after 24 hrs; assay type: functional; details: for MBC: USA100 NRS382, 24 h
Staphylococcus aureus [8] = experiment: Bactericidal activity against mupirocin/rifampicin-resistant Staphylococcus aureus RN4220 NRS107 clinical isolate after 24 hrs; assay type: functional; details: RN4220 NRS107, 24 h
Staphylococcus aureus [9] = experiment: Antibacterial activity against methicillin/ciprofloxacin/clindamycin-resistant Staphylococcus aureus USA100 NRS382 clinical isolate after 18 to 20 hrs by broth microdilution method; assay type: functional
Staphylococcus aureus [10] = experiment: Bactericidal activity against vancomycin-resistant Staphylococcus aureus VRSA10 clinical isolate after 24 hrs; assay type: functional; details: VRSA10, 24 h
Staphylococcus aureus [11] = experiment: Antibacterial activity against vancomycin-resistant Staphylococcus aureus VRSA10 clinical isolate after 18 to 20 hrs by broth microdilution method; assay type: functional
Staphylococcus aureus [12] = experiment: Antibacterial activity against methicillin-resistant Staphylococcus aureus 2658 RCMB after 18 to 20 hrs by broth microdilution method; assay type: functional
Staphylococcus aureus [13] = experiment: Bactericidal activity against methicillin-resistant Staphylococcus aureus USA400 NRS123 clinical isolate assessed as reduction of bacterial load at 4 times MIC after 48 hrs by time kill assay; assay type: functional
Staphylococcus aureus [14] = experiment: Bactericidal activity against methicillin/erythromycin/tetracycline-resistant Staphylococcus aureus USA300 NRS384 clinical isolate after 24 hrs; assay type: functional; details: for MBC: USA300 NRS384, 24 h
Staphylococcus aureus [15] = experiment: Antibacterial activity against methicillin/ciprofloxacin/gentamicin/clindamycin-resistant Staphylococcus aureus USA200 NRS383 clinical isolate after 18 to 20 hrs by broth microdilution method; assay type: functional
Staphylococcus aureus [16] = experiment: Antibacterial activity against methicillin-resistant Staphylococcus aureus USA400 NRS123 clinical isolate after 18 to 20 hrs by broth microdilution method; assay type: functional
Staphylococcus aureus [17] = experiment: Bactericidal activity against methicillin-resistant Staphylococcus aureus USA400 NRS123 clinical isolate assessed as time required to reduce 4 log10CFU of bacterial load at 4 times MIC by time kill assay; assay type: functional
Staphylococcus aureus [18] = experiment: Bactericidal activity against vancomycin-resistant Staphylococcus aureus VRSA4 clinical isolate after 24 hrs; assay type: functional; details: VRSA4, 24 h
J774 = experiment: Cytotoxicity against mouse J774 cells assessed as decrease in cell viability at 8 ug/ml after 2 hrs by MTS assay; assay type: cell-based; details: j774, 2 h
Staphylococcus aureus [19] = experiment: Potentiation of vancomycin-mediated antibacterial activity against vancomycin-resistant Staphylococcus aureus VRSA4 clinical isolate assessed as reduction in vancomycin MIC at 0.5 times MIC preincubated for 30 mins followed by vancomycin addition measured after 20 to 22 hrs relative to control; assay type: functional
HaCaT [20] = experiment: Cytotoxicity against human HaCaT cells assessed as decrease in cell viability up to 8 ug/ml after 2 hrs by MTS assay; assay type: cell-based
Staphylococcus aureus [21] = experiment: Potentiation of vancomycin-mediated antibacterial activity against vancomycin-resistant Staphylococcus aureus VRSA10 clinical isolate assessed as vancomycin MIC at 0.5 times MIC preincubated for 30 mins followed by vancomycin addition measured after 20 to 22 hrs (reference value: 512 ug/ml); assay type: functional
[22] = Half life in human liver microsomes after 10 to 60 mins in absence of NADPH by LC/MS/MS analysis; assay type: ADME, microsome
[23] = Intrinsic clearance in human liver microsomes after 10 to 60 mins in presence of NADPH by LC/MS/MS analysis; assay type: ADME, microsome; details: read-out: CLH
[24] = Intrinsic clearance in human liver microsomes after 10 to 60 mins in absence of NADPH by LC/MS/MS analysis; assay type: ADME, microsome; details: read-out: CLH
[25] = Half life in human liver microsomes after 10 to 60 mins in presence of NADPH by LC/MS/MS analysis; assay type: ADME, microsome
Staphylococcus aureus [26] = experiment: Bactericidal activity against methicillin-resistant Staphylococcus aureus USA400 NRS123 clinical isolate assessed as reduction of bacterial load at 4 times MIC after 24 hrs by time kill assay; assay type: functional
Staphylococcus aureus [27] = experiment: Antibacterial activity against methicillin-resistant Staphylococcus aureus USA400 NRS123 clinical isolate infected in mouse J774 cells assessed as reduction of bacterial load at 16 ug/ml after 24 hrs relative to control; assay type: functional
HaCaT [28] = experiment: Cytotoxicity against human HaCaT cells assessed as decrease in cell viability up to 32 ug/ml after 2 hrs by MTS assay; assay type: cell-based
HaCaT [29] = experiment: Cytotoxicity against human HaCaT cells assessed as decrease in cell viability at 64 ug/ml after 2 hrs by MTS assay; assay type: cell-based
Staphylococcus aureus [30] = experiment: Bactericidal activity against methicillin-resistant Staphylococcus aureus USA400 NRS123 clinical isolate assessed as time required to reduce 3 log10CFU of bacterial load at 4 times MIC by time kill assay; assay type: functional

Compound	MIC (Staphylococcus aureus [1])	MIC (Staphylococcus aureus [2])	MBC (Staphylococcus aureus [3])	MIC (Staphylococcus aureus [5])	MBC (Staphylococcus aureus [6])	MBC (Staphylococcus aureus [7])	MBC (Staphylococcus aureus [8])	MIC (Staphylococcus aureus [9])	MBC (Staphylococcus aureus [10])	MIC (Staphylococcus aureus [11])	MIC (Staphylococcus aureus [12])	MBC (Staphylococcus aureus [14])	MIC (Staphylococcus aureus [15])	MIC (Staphylococcus aureus [16])	MBC (Staphylococcus aureus [18])	microsomal CLint [23]	microsomal CLint [24]	further results
CCCCCCCCOc1ccc(-c2nc(C)c(/C(C)=N/NC(=N)N)s2)cc1	4 µg/mL (≈ 9.96 µM)	4 µg/mL (≈ 9.96 µM)	8 µg/mL (≈ 19.9 µM)	4 µg/mL (≈ 9.96 µM)	2 µg/mL (≈ 4.98 µM)	2 µg/mL (≈ 4.98 µM)	8 µg/mL (≈ 19.9 µM)	2 µg/mL (≈ 4.98 µM)	4 µg/mL (≈ 9.96 µM)	4 µg/mL (≈ 9.96 µM)	15.6 µg/mL (≈ 38.9 µM)	4 µg/mL (≈ 9.96 µM)	1 µg/mL (≈ 2.49 µM)	4 µg/mL (≈ 9.96 µM)	4 µg/mL (≈ 9.96 µM)			Activity (HaCaT [4]): Non-Toxic; Activity (Staphylococcus aureus [13]): Active; Time (Staphylococcus aureus [17]): <=2 hr
CCCCCCCOc1ccc(-c2nc(C)c(/C(C)=N/NC(=N)N)s2)cc1	2 µg/mL (≈ 5.16 µM)	2 µg/mL (≈ 5.16 µM)	4 µg/mL (≈ 10.3 µM)	2 µg/mL (≈ 5.16 µM)	1 µg/mL (≈ 2.58 µM)	1 µg/mL (≈ 2.58 µM)	2 µg/mL (≈ 5.16 µM)	1 µg/mL (≈ 2.58 µM)	2 µg/mL (≈ 5.16 µM)	2 µg/mL (≈ 5.16 µM)	0.74 µg/mL (≈ 1.91 µM)	2 µg/mL (≈ 5.16 µM)	0.5 µg/mL (≈ 1.29 µM)	2 µg/mL (≈ 5.16 µM)	2 µg/mL (≈ 5.16 µM)			Activity (J774): Toxic; fold change (FC) (Staphylococcus aureus [19]): 4; Activity (HaCaT [20]): Non-Toxic; MIC (Staphylococcus aureus [21]): > 128 µg/mL
CCCCOc1ccc(-c2nc(C)c(/C(C)=N/NC(=N)N)s2)cc1					> 64 µg/mL	> 128 µg/mL		32 µg/mL (≈ 92.6 µM)			15.6 µg/mL (≈ 45.2 µM)		32 µg/mL (≈ 92.6 µM)			< 9.6 µL/min/mg	< 9.6 µL/min/mg	half-life [22]: > 4 h; half-life [25]: > 4 h
CN[C@H](CC(C)C)C(=O)N[C@H]1C(=O)N[C@@H](CC(N)=O)C(=O)N[C@H]2C(=O)N[C@H]3C(=O)N[C@H](C(=O)N[C@H](C(=O)O)c4cc(O)cc(O)c4-c4cc3ccc4O)[C@H](O)c3ccc(c(Cl)c3)Oc3cc2cc(c3O[C@@H]2O[C@H](CO)[C@@H](O)[C@H](O)[C@H]2O[C@H]2C[C@](C)(N)[C@H](O)[C@H](C)O2)Oc2ccc(cc2Cl)[C@H]1O [VANCOMYCIN]	> 512 µg/mL		0.5 µg/mL (≈ 0.345 µM)		0.5 µg/mL (≈ 0.345 µM)	< 1 µg/mL	1 µg/mL (≈ 0.69 µM)	< 1 µg/mL	> 512 µg/mL	> 512 µg/mL	1.95 µg/mL (≈ 1.35 µM)	1 µg/mL (≈ 0.69 µM)			> 512 µg/mL			Activity (Staphylococcus aureus [26]): Active; Activity (Staphylococcus aureus [27]): inactive
CC(=O)CC(c1ccccc1)c1c(O)c2ccccc2oc1=O (stereo not drawn) [WARFARIN]																< 9.6 µL/min/mg	< 9.6 µL/min/mg	
C/C(=N\NC(=N)N)c1sc(-c2ccc(OCCCC(C)C)cc2)nc1C	16 µg/mL (≈ 42.8 µM)	16 µg/mL (≈ 42.8 µM)	32 µg/mL (≈ 85.7 µM)	16 µg/mL (≈ 42.8 µM)	16 µg/mL (≈ 42.8 µM)	2 µg/mL (≈ 5.35 µM)	16 µg/mL (≈ 42.8 µM)	2 µg/mL (≈ 5.35 µM)	16 µg/mL (≈ 42.8 µM)	16 µg/mL (≈ 42.8 µM)	15.6 µg/mL (≈ 41.8 µM)	32 µg/mL (≈ 85.7 µM)	4 µg/mL (≈ 10.7 µM)	16 µg/mL (≈ 42.8 µM)	16 µg/mL (≈ 42.8 µM)			
C/C(=N\NC(=N)N)c1sc(-c2ccc(OC3CCCC3)cc2)nc1C	8 µg/mL (≈ 22.4 µM)	8 µg/mL (≈ 22.4 µM)	32 µg/mL (≈ 89.5 µM)	8 µg/mL (≈ 22.4 µM)	16 µg/mL (≈ 44.8 µM)	4 µg/mL (≈ 11.2 µM)	8 µg/mL (≈ 22.4 µM)	2 µg/mL (≈ 5.59 µM)	8 µg/mL (≈ 22.4 µM)	8 µg/mL (≈ 22.4 µM)	15.6 µg/mL (≈ 43.7 µM)	8 µg/mL (≈ 22.4 µM)	2 µg/mL (≈ 5.59 µM)	8 µg/mL (≈ 22.4 µM)	8 µg/mL (≈ 22.4 µM)			Activity (Staphylococcus aureus [3]): Dose-dependent effect; Activity (HaCaT [4]): Non-Toxic; Activity (Staphylococcus aureus [6]): Dose-dependent effect; Activity (Staphylococcus aureus [7]): Dose-dependent effect; Activity (Staphylococcus aureus [14]): Dose-dependent effect
CCCCCCOc1ccc(-c2nc(C)c(/C(C)=N/NC(=N)N)s2)cc1	4 µg/mL (≈ 10.7 µM)	4 µg/mL (≈ 10.7 µM)	16 µg/mL (≈ 42.8 µM)	4 µg/mL (≈ 10.7 µM)	2 µg/mL (≈ 5.35 µM)	2 µg/mL (≈ 5.35 µM)	4 µg/mL (≈ 10.7 µM)	2 µg/mL (≈ 5.35 µM)	4 µg/mL (≈ 10.7 µM)	4 µg/mL (≈ 10.7 µM)	0.35 µg/mL (≈ 0.937 µM)	8 µg/mL (≈ 21.4 µM)	1 µg/mL (≈ 2.68 µM)	4 µg/mL (≈ 10.7 µM)	4 µg/mL (≈ 10.7 µM)	< 9.6 µL/min/mg	< 9.6 µL/min/mg	Activity (HaCaT [28]): Non-Toxic; Activity (HaCaT [29]): Toxic; half-life [22]: > 4 h; Time (Staphylococcus aureus [30]): 24 h; half-life [25]: > 4 h
